Several values for one entry are separate records, joined by “and”; a condition that tells them apart may be missing. Equal entries are not always repeated. Where two headings read alike, the source gives them in different places.
Tests used:
[1] = Pararosaniline-based colorimetric assay for sulfur dioxide; assay type: physicochemical; conditions: detected with pararosaniline-based colorimetric assay; 10 equiv cysteine, pH 7.4
[2] = tested on: Mycobacterium tuberculosis H37Rv strain; assay: Antimycobacterial activity assay (MIC, 7H11 agar); assay type: cell-based; conditions: Mtb H37Rv
[3] = Cysteine-activated sulfur dioxide release, ion chromatography analysis of sulfite; conditions: for SO2 yield, 5 min: 5 min after treatment of compound (100 1M) with 10 equiv of cysteine in pH 7.4 phosphate buffer; for K (min−1), rate of sulfite release: compound (100 μM), cysteine (10 equiv), pH 7.4 phosphate buffer (20 mM); for Max SO2 yield: sum of sulfite and sulfate, compound 100 μM, cysteine 10 equiv; for % SO2 (30 min): 30 min after commencement of the reaction with thiol, per mole of compound
[4] = Table 4; values are for the amine without a DNs group; cited from earlier work
S. aureus ATCC 29213 = assay: Antibacterial activity (MIC) against S. aureus; assay type: cell-based; conditions: Staphylococcus aureus, ATCC29213; read-out: MIC (μg/mL) S. aureus ATCC 29213
Source text: (§1) The antibacterial activity of thiol mediated/activated prodrugs of SO2 i.e. 2,4-dinitrophenylsulfonamide related compounds against the gram positive pathogenic bacteria selected from the group S. aureus, E. feacalis is given herein below Table 2a.

[5] = tested on: human embryonic kidney 293 cells (HEK); assay: Cell viability assay
E. feacalis ATCC 29212 = assay: Antibacterial activity (MIC) against E. feacalis; assay type: cell-based; conditions: Enterococcus faecalis, ATCC29212; read-out: MIC (μg/mL) E. feacalis ATCC 29212
Source text: as §1

[6] = 100 µM, pH 7.4
[7] = Kinetics of thiol-mediated decomposition of compound (7), HPLC and ion chromatography; assay type: physicochemical; conditions: curve fitting, FIG. 3
Protocol: FIG. 3 depicts kinetics of decomposition of compound (7) to produce sulfur dioxide and 2-hydroxyethylthio-2,4-dinitrobenzene (7y), where disappearance of compound (7) and appearance of (7y) was followed by HPLC analysis. Production of sulfite was monitored by ion chromatography analysis. Curve fitting afforded first order rate constant for: appearance of (7y) as 0.011 min^−1; and appearance of sulfite as 0.014 min^−1.
Alternatively, a detailed kinetic analysis of thiol-mediated decomposition and sulfite generation from compound (7) is represented in FIG. 1b, wherein compound (7) decomposed to simultaneously produce sulfur dioxide, and by-products like 4-methoxyaniline (7x) and 2-hydroxyethylthio-2,4-dinitrobenzene (7y). Further the rate determining step in the said mechanism was the step of protonation (either through proton transfer or addition of proton).

[8] = 30 min after treatment of compound (100 1M) with 10 equiv of cysteine in pH 7.4 phosphate buffer
[9] = Table 3, 30 min after treatment of compound (100 μM) with 10 equiv of cysteine in pH 7.4 phosphate buffer
[10] = Mycobacterium tuberculosis, H37RV, Table 3
[11] = Mycobacterium tuberculosis, H37RV, Table 3, inhibit 99% of bacterial growth
[12] = Mycobacterium tuberculosis, H37RV, 672 h, Table 3, inhibit 99% of bacterial growth
[13] = Mycobacterium tuberculosis, H37RV, Table 2b
[14] = Mycobacterium tuberculosis, H37RV, Table 2b, inhibit 99% of bacterial growth

| SMILES | SO2 source [1] | SO2 yield, 5 min [3] [µM] | SO2 yield, 30 min [3, 8] [µM] | SO2 yield, 30 min [3, 9] [µM] | Max SO2 yield ([3]; pH 7.4) [µM] | pKaH [4] | MIC [2, 10] [µM] | MIC [2, 11] [µg/mL] | melting point [°C] | % SO2 (30 min) [3] [%] | further results |
| --- | --- | --- | --- | --- | --- | --- | --- | --- | --- | --- | --- |
| CCCN(Cc1ccccc1)S(=O)(=O)c1ccc([N+](=O)[O-])cc1[N+](=O)[O-] [Compound 16, (N-benzyl, N-propyl) 2,4-dinitrophenylsulfonamide] | yes | 68 | 96 | 96 | 96 | 9.68 |  |  |  |  | MIC ([2]; Table 2b, read-out: MIC): 8.25 µM; MIC ([2]; Table 3, read-out: MIC): 8.25 µM; K (min−1), rate of sulfite release [3]: 0.1517 min⁻¹ |
| O=[N+]([O-])c1ccc(S(=O)(=O)N2CCOCC2)c([N+](=O)[O-])c1 [Compound 23, 4-[(2,4-dinitrophenyl)sulfonyl]morpholine] | yes |  |  | 96 |  |  | 19.6 | 6.25 | 144 to 145 |  | MIC ([2]; Mycobacterium tuberculosis, H37RV, 672 h, Table 3, inhibit 99% of bacterial growth, read-out: MIC): ≤ 25 µg/mL |
| O=[N+]([O-])c1ccc(S(=O)(=O)NCc2ccccc2)c([N+](=O)[O-])c1 [Compound 1, N-benzyl-2,4-dinitrophenylsulfonamide] | yes | 83 | 100 | 100 | 100 | 9.34 | 0.15 | 0.05 |  |  | MIC (S. aureus ATCC 29213): > 16 µg/mL; MIC [2, 12]: ≤ 25 µg/mL; MIC [2, 13]: 0.15 µM; MIC [2, 14]: ~0.05 µg/mL; SO2 yield in 30 min (%) ([3]; 30 min after commencement of the reaction with cysteine (10 equiv), pH 7.4): ~100%; IC50 ([5]; Homo sapiens, HEK293, read-out: IC50, cell viability): 7 µM; selectivity (SI) toward Mtb over human embryonic kidney cells ([5]; based on the MIC and IC50): ~50 and 47; MIC (E. feacalis ATCC 29212): > 16 µg/mL; t1/2 (min) of SO2 generation [6]: ~2 min; t1/2 (min) of SO2 generation ([6]; buffer): ~2 g·min |
| COc1ccc(NS(=O)(=O)c2ccc([N+](=O)[O-])cc2[N+](=O)[O-])cc1 [Compound 7, N-(4-methoxyphenyl) 2,4-dinitrophenylsulfonamide] | yes | 39 | 80 | 79.5 | 97 | 5.29 | 4.4 | 1.56 |  |  | MIC (S. aureus ATCC 29213): > 16 µg/mL; MIC [2, 12]: ≤ 25 µg/mL; MIC [2, 13]: 4.4 µM; MIC [2, 14]: 1.56 µg/mL; K (min−1), rate of sulfite release [3]: 0.0575 min⁻¹; first order rate constant for appearance of (7y) ([7]; HPLC analysis): 0.011 min⁻¹; first order rate constant for appearance of sulfite ([7]; ion chromatography analysis): 0.014 min⁻¹; MIC (E. feacalis ATCC 29212): > 16 µg/mL; t1/2 (min) of SO2 generation ([6]; buffer): 12 min |
| COc1cccc(N(CCCN(Cc2ccccc2)S(=O)(=O)c2ccc([N+](=O)[O-])cc2[N+](=O)[O-])S(=O)(=O)c2ccc([N+](=O)[O-])cc2[N+](=O)[O-])c1 [Compound 36, N-benzyl-N-(3-(N-(3-methoxyphenyl)-2,4-dinitrophenylsulfonamido)propyl)-2,4-dinitrobenzenesulfonamide] |  |  |  |  |  |  |  |  | 108 to 110 | 184 |  |
| O=[N+]([O-])c1ccc(S(=O)(=O)N(CCCN(c2ccccc2)S(=O)(=O)c2ccc([N+](=O)[O-])cc2[N+](=O)[O-])Cc2ccccc2)c([N+](=O)[O-])c1 [Compound 38, N-benzyl-N-(3-(2,4-dinitro-(N-phenyl)phenylsulfonamido)propyl)-2,4 dinitro benzene sulfonamide] |  |  |  |  |  |  |  |  | 151 to 153 | 160 |  |
| O=[N+]([O-])c1ccc(S(=O)(=O)N(CCCN(Cc2ccccc2)S(=O)(=O)c2ccc([N+](=O)[O-])cc2[N+](=O)[O-])Cc2ccccc2)c([N+](=O)[O-])c1 [Compound 34, N,N′-(propane-1,3-diyl)bis(N-benzyl-2,4-dinitrobenzenesulfonamide)] |  |  |  |  |  |  |  |  | 186 to 189 | 152 |  |

— patent publication US9079870B2, “Thiol mediated/activated prodrugs of sulfur dioxide (SO2) having anti-bacterial activity” (priority 2012, dated 2015)
